Data taken from patent publication US20180110754A1, “CENICRIVIROC FOR THE TREATMENT OF FIBROSIS” (Tobira Therapeutics, Inc., priority 2015, published 2018).

Tests used:
[1] = Study 202: ECG abnormalities and vital signs; format: in vivo, human; conditions: All CVC (N = 115); EFV (N = 28), through Week 48
[2] = Study 202: treatment-emergent laboratory abnormalities (DAIDS grades; CPK, ALT, AST, bilirubin); format: in vivo; conditions: All CVC (N = 115), EFV (N = 28)
Source text: The number of subjects with graded treatment-emergent laboratory abnormalities in selected liver parameters of interest is shown in Table 34. No Grade 4 ALT or AST elevations were observed. Except for one Grade 3 AST elevation, all ALT and AST elevations were Grade 1 or Grade 2. […] All abnormalities in bilirubin were Grade 1 or Grade 2. […]

O=C1Nc2ccc(Cl)cc2[C@@](C#CC2CC2)(C(F)(F)F)O1 [EFV, efavirenz, reference compound]
4: QTcB interval Increase by >30-60 ms, n subjects [1] | QTcF interval Increase by >30-60 ms, n subjects [1] | Any Grade 3 or Grade 4 laboratory abnormality, n subjects ([2]; through Week 48)
2: ALT, worst Grade 1, n subjects ([2]; through Week 48) | Alanine aminotransferase (ALT) abnormality, any grade, n subjects ([2]; through Week 48) | CPK increased, worst Grade 3, n subjects ([2]; through Week 48) | Creatine phosphokinase (CPK) increased (Grade 3 or 4), n subjects ([2]; through Week 48)
13: Laboratory abnormality, worst Grade 1, n subjects [2]
8: Laboratory abnormality, worst Grade 2, n subjects [2]
3: QTcB interval Borderline (450-480 ms), n subjects [1] | Laboratory abnormality, worst Grade 3 (Any Grade 3 abnormality), n subjects [2] | AST, worst Grade 1, n subjects ([2]; through Week 48) | Aspartate aminotransferase (AST) abnormality, any grade, n subjects ([2]; through Week 48)
25: Any graded (Grade 1-4) treatment-emergent laboratory abnormality, n subjects [2]
1: PR Abnormally high, n subjects [1] | Laboratory abnormality, worst Grade 4 (Any Grade 4 abnormality), n subjects [2] | Bilirubin abnormality, any grade, n subjects ([2]; through Week 48) | Bilirubin, worst Grade 1, n subjects ([2]; through Week 48) | Neutrophils decreased (Grade 3 or 4), n subjects ([2]; through Week 48) | Neutrophils decreased, worst Grade 4, n subjects ([2]; through Week 48) | Phosphate decreased (Grade 3 or 4), n subjects ([2]; through Week 48) | Phosphate decreased, worst Grade 3, n subjects ([2]; through Week 48)
0: HR Abnormally high, n subjects [1] | HR Abnormally low, n subjects [1] | QRS Abnormally high, n subjects [1] | QRS Abnormally low, n subjects [1] | QTcB interval Increase by >60 ms, n subjects [1] | QTcB interval Pathologically prolonged, n subjects [1] | QTcB interval Prolonged, n subjects [1] | QTcF interval Borderline (450-480 ms), n subjects [1] | QTcF interval Increase by >60 ms, n subjects [1] | QTcF interval Pathologically prolonged, n subjects [1] | QTcF interval Prolonged, n subjects [1] | ALT, worst Grade 2, n subjects ([2]; through Week 48) | ALT, worst Grade 3, n subjects ([2]; through Week 48) | ALT, worst Grade 4, n subjects ([2]; through Week 48) | AST, worst Grade 2, n subjects ([2]; through Week 48) | AST, worst Grade 3, n subjects ([2]; through Week 48) | AST, worst Grade 4, n subjects ([2]; through Week 48) | Aspartate aminotransferase (AST) increased (Grade 3 or 4), n subjects ([2]; through Week 48) | Bilirubin, worst Grade 2, n subjects ([2]; through Week 48) | Bilirubin, worst Grade 3, n subjects ([2]; through Week 48) | Bilirubin, worst Grade 4, n subjects ([2]; through Week 48) | CPK increased, worst Grade 4, n subjects ([2]; through Week 48) | Fibrinogen decreased (Grade 3 or 4), n subjects ([2]; through Week 48) | Fibrinogen decreased, worst Grade 3, n subjects ([2]; through Week 48) | Fibrinogen decreased, worst Grade 4, n subjects ([2]; through Week 48) | Hemoglobin decreased (Grade 3 or 4), n subjects ([2]; through Week 48) | Hemoglobin decreased, worst Grade 3, n subjects ([2]; through Week 48) | Hemoglobin decreased, worst Grade 4, n subjects ([2]; through Week 48) | Neutrophils decreased, worst Grade 3, n subjects ([2]; through Week 48) | Phosphate decreased, worst Grade 4, n subjects ([2]; through Week 48) | Prothrombin time/INR increased, worst Grade 3, n subjects ([2]; through Week 48) | Prothrombin time/INR increased, worst Grade 4, n subjects ([2]; through Week 48) | Prothrombin time/international normalized ratio increased (Grade 3 or 4), n subjects ([2]; through Week 48)
